# Laboratory results: US11660326B2, “Bacterial-binding peptides for treatment of infectious diseases and related inflammatory processes” (priority 2018, dated 2023)
# Tests used:
# [1] = Solid phase binding assay (ELISA) of biotin-labeled peptides to immobilized LPS; set-up: species or system E. coli; conditions: biotin-labeled peptide 5-20 μg/mL; LPS 5 μg/mL coated
# Method: (§1) FIG. 3. Binding of biotin-labeled CD6-derived peptides to immobilized PAMPs from Gram- and Gram+ origin. Increasing concentrations (5-20 μg/mL) of biotin-labeled CD6- (PD1, PD2, PD3 and cons), DMBT1- (pbs1), and CD5- (PD1) derived peptides were added to 96-well ELISA plates sensitized with E. coli 0111:B4 LPS (A) or S. aureus LTA (B) (5 μg/mL each in PBS). Following overnight incubation at 4° C. bound peptides or proteins were developed by addition of horseradish peroxidase (HRP)-labeled streptavidin and 3,3′,5,5′-tetramethylbenzidine (TMB) substrate and further readings at OD 405-620 nm. Results are expressed as mean±SD of duplicates from one representative experiment of three performed. Statistical analysis was performed by two-way ANOVA (*,P<0.05; **, P<0.01; ***, P<0.001).
# (§2) Solid Phase Binding Assays. 96-well microtiter plates (Nunc, Roskilde, Denmark) were coated overnight at 4° C. with 5 μg/mL of purified LPS (E. coli 0111:B4, Sigma L2630) or LTA (S. aureus, Sigma L2515) in PBS, and then incubated for 2 h at room temperature in blocking solution (20 mM Tris-HCl pH 7.4 plus 0.05% Tween 20 and 1% BSA). Biotin-labeled peptides/proteins (2.5-20 μg/mL) were added and incubated overnight at 4° C. in blocking solution. After extensive washing, bound peptides/proteins were detected by the addition of horseradish peroxidase (HRP)-labeled streptavidin (1:5,000 dilution; DAKO) for 1 h at room temperature. Color was developed by adding 3,3′,5,5′-tetramethylbenzidine (TMB) liquid substrate (Sigma), and optical density read at 405-620 nm.
# [2] = Solid phase binding assay (ELISA) of biotin-labeled peptides to immobilized LTA; set-up: species or system S. aureus; conditions: biotin-labeled peptide 5-20 μg/mL; LTA 5 μg/mL coated
# Method: as §1, §2
# [3] = tested on: mouse splenocytes exposed to LPS; test: LPS-induced cytokine release by mouse splenocytes; format: cell-based, C57BL/6 mice; conditions: LPS 0.5 μg/mL, 48 h, peptide 0.5, 5 and 20 μg/mL
# Method: FIG. 6. Effect of CD6-derived peptides on in vitro LIPS-induced cytokine release by mouse splenocytes. Total spleen cell suspensions (2×10^5) from C57BL/6 mice (n=7) were stimulated in triplicate for 48 h with LPS (0.5 μg/mL), in the presence or absence of increasing concentrations (0.5, 5, and 20 μg/mL) of CD6-derived peptides (PD1, PD2, PD3, and Pcons). Cytokine levels in culture supernatants were determined by ELISA and results expressed in pg/mL as mean±SD of triplicates. Viability was >75% at 48 h in all experimental conditions. Statistical analysis was performed using a 2-tailed Mann-Whitney test, with confidence intervals of 95% (*, P<0.05; **, P<0.01; ***, P<0.001).
# Spleens from 6-8 week old C57BL/6 mice (Charles River) were disaggregated by filtering through a cell strainer and, after erythrocyte lysis, cells were resuspended in RPMI 1640 with L-glutamine (Lonza) plus 10% fetal calf serum (BioWest), 100 U/mL penicillin, 100 μg/mL streptomycin and 50 μM 2-(3 Mercaptoethanol (Merck). Cells (2×10^5) were stimulated for 48 h (at 37° C. in a humidified atmosphere with 5% CO2) in U-bottomed 96-well plates (Biofil) containing LPS (0.5 μg/mL; E. coli O111:B4), in the presence or absence of increasing peptides (0.5-20 μg/mL). Culture supernatants were harvested and mouse cytokines measured by ELISA following manufacturer's instructions (BD Biosciences OptEIA sets).
# [4] = tested on: mice undergoing CLP-induced septic shock; test: Blood and spleen bacterial load following CLP-induced sepsis; format: in vivo, C57BL/6J mice; conditions: 20 h post CLP; 6 mg/kg i.v. at +1 h; vs saline control group
# Method: FIG. 9. Therapeutic effect of CD6.PD3 infusion on cytokine and bacterial load levels following CLP-induced sepsis. (A) C57BL/6J mice were i.v. infused at +1 h post CLP with saline (n=7) or CD6.PD3 peptide (6 mg/kg; n=9), and cytokine plasma levels were monitored by ELISA at different time points (4 h and 20 h) thereafter. Data are expressed as mean±SD. (B) Same mouse groups as in (A) were monitored for blood and spleen bacterial load at 20 h following CLP induction. Data are expressed as mean±SD of CFU/mg (spleen) or CFU/μL (blood). In all cases, statistical differences were evaluated using a 2-tailed Student t-test (*, P<0.05).
# For the assessment of bacterial load, blood and spleen samples from CLP-treated mice were collected, homogenized and diluted aseptically in sterile PBS. Serial dilutions were plated overnight on agar with 5% sheep blood (Becton Dickinson) at 37° C. Viable bacterial counts were expressed as CFU/mL (blood) or per mg (spleen).
sequence,measurement,setting,value
GQVEVHFRGVW (CD6.PD3),binding to immobilized LPS (ELISA),[1],excelled in its ability to bind
same,binding to immobilized LTA (ELISA),[2],excelled in its ability to bind
same,IL-1β release,[3],dose-dependent inhibitory effects
same,IL-6 release,[3],dose-dependent inhibitory effects
same,IL-10 release,[3],non-statistically significant dose-dependent increased release
same,CFU isolated from blood,[4],lower CFU
same,CFU isolated from spleen,[4],lower CFU
